Results on 28 compounds are retold here after patent US7507729B2, “Substituted imidazo-[1,5-a][1,2,4]triazolo[1,5-d][1,4] benzodiazepine derivatives” (priority 2005, dated 2009).

Counter-ions that a name gives are not always drawn. Like-named read-outs stand apart in the source and are kept apart here.

Test [1] concerns the target T1, GABA A receptor α5β3γ2 (hα5) (Homo sapiens, UniProt P18507+P31644).
T1 construct: expressed in transfected cells; host or cells: HEK293, transiently transfected; membranes
In words: [3H]flumazenil competition binding, membranes of HEK293 cells expressing human GABA A α5β3γ2. How it is done:
(§1) The affinity of compounds at GABA A receptor subtypes was measured by competition for [^3H]flumazenil (85 Ci/mmol; Roche) binding to HEK293 cells expressing rat (stably transfected) or human (transiently transfected) receptors of composition α1β3γ2, α2β3γ2, α3β3γ2 and α5β3γ2.
(§2) Cell pellets were suspended in Krebs-tris buffer (4.8 mM KCl, 1.2 mM CaCl2, 1.2 mM MgCl2, 120 mM NaCl, 15 mM Tris; pH 7.5; binding assay buffer), homogenized by polytron for ca. 20 sec on ice and centrifuged for 60 min at 4° C. (50000 g; Sorvall, rotor: SM24=20000 rpm). The cell pellets were resuspended in Krebs-tris buffer and homogenized by polytron for ca. 15 sec on ice. Protein was measured (Bradford method, Bio-Rad) and aliquots of 1 mL were prepared and stored at −80° C.
(§3) Radioligand binding assays were carried out in a volume of 200 μL (96-well plates) which contained 100 μL of cell membranes, [^3H]flumazenil at a concentration of 1 nM for α1, α2, α3 subunits and 0.5 nM for α5 subunits and the test compound in the range of 10^−10-3×10^−6 M.
(§4) Nonspecific binding was defined by 10^−5 M diazepam and typically represented less than 5% of the total binding. Assays were incubated to equilibrium for 1 hour at 4° C. and harvested onto GF/C uni-filters (Packard) by filtration using a Packard harvester and washing with ice-cold wash buffer (50 mM Tris; pH 7.5). After drying, filter-retained radioactivity was detected by liquid scintillation counting. Ki values were calculated using Excel-Fit (Microsoft) and are the means of two determinations.

Test [2] concerns the target T2, GABA A receptor α1β3γ2 (hα1) (Homo sapiens, UniProt P14867+P18507).
T2 construct: expressed in transfected cells; host or cells: HEK293, transiently transfected; membranes
Briefly: [3H]flumazenil competition binding, membranes of HEK293 cells expressing human GABA A α1β3γ2. How it is done:
as §1, §2, §3, §4

The mark [3] stands for this setting: [3H]flumazenil 0.5 nM, 1 hour at 4° C., means of two determinations, read-out: Ki[nM] hα5.
Setting [4] is: [3H]flumazenil 1 nM, 1 hour at 4° C., means of two determinations, read-out: Ki[nM] hα1.

Turning to “3-Bromo-10-chloro-6-(hydroxy-phenyl-ethyl)-9H-imidazo[1,5-a][1,2,4]triazolo[1,5-d][1,4]benzodiazepine [Example 54]”, the Ki – broadly, the dissociation constant of the complex between target and ligand, obtained from inhibition or displacement – in test [1] (setting [3]) came out at 0.9 nM; in test [2] (setting [4]), 34.6 nM.
For `CCOC(=O)c1ncn2c1Cn1nc(COC)nc1-c1cc(Cl)ccc1-2` [Example 4, Ethyl 3-chloro-6-methoxymethyl-9H-imidazo[1,5-a][1,2,4]triazolo[1,5-d][1,4]benzodiazepine-10-carboxylate], the Ki in test [1] (setting [3]) is 0.3 nM; in test [2], 8.5 nM.
Turning to `Clc1ccc2c(c1)-c1nc(Cn3nccn3)nn1Cc1c(Cl)ncn1-2` [Example 10, 3,10-Dichloro-6-[1,2,3]triazol-2-ylmethyl-9H-imidazo[1,5-a][1,2,4]triazolo[1,5-d][1,4]benzodiazepine], the Ki amounted to 0.4 nM in test [1] (setting [3]) and 63.3 nM in test [2].
Take `Clc1ccc2c(c1)-c1nc(Cn3ccnn3)nn1Cc1c(Cl)ncn1-2` [Example 11, 3,10-Dichloro-6-[1,2,3]triazol-1-ylmethyl-9H-imidazo[1,5-a][1,2,4]triazolo[1,5-d][1,4]benzodiazepine]: the Ki turned out to be 0.5 nM in test [1] (setting [3]) and 48.3 nM in test [2].
Regarding `Clc1ccc2c(c1)-c1nc(Cn3cncn3)nn1Cc1c(Cl)ncn1-2` [Example 12, 3,10-Dichloro-6-[1,2,4]triazol-1-ylmethyl-9H-imidazo[1,5-a][1,2,4]triazolo[1,5-d][1,4]benzodiazepine], the inhibitory constant (Ki) in test [1] (setting [3]) came out at 0.8 nM; in test [2] it was 51.8 nM.
Regarding `Clc1ccc2c(c1)-c1nc(Cn3cccn3)nn1Cc1c(Cl)ncn1-2` [Example 13, 3,10-Dichloro-6-pyrazol-1-ylmethyl-9H-imidazo[1,5-a][1,2,4]triazolo[1,5-d][1,4]benzodiazepine], the values for the Ki in test [1] (setting [3]) and in test [2] were 0.9 nM and 30.7 nM, respectively.
`Clc1ccc2c(c1)-c1nc(Cn3nc4ccccc4n3)nn1Cc1c(Cl)ncn1-2` [Example 21, 6-Benzotriazol-2-ylmethyl-3,10-dichloro-9H-imidazo[1,5-a][1,2,4]triazolo[1,5-d][1,4]benzodiazepine]: in test [2] (setting [4]), the Ki worked out at 133 nM.
Consider `Clc1ccc2c(c1)-c1nc(Cn3nnc4ccccc43)nn1Cc1c(Cl)ncn1-2` [Example 22, 6-Benzotriazol-1-ylmethyl-3,10-dichloro-9H-imidazo[1,5-a][1,2,4]triazolo[1,5-d][1,4]benzodiazepine], for which the figures for the inhibitory constant (Ki) in test [1] (setting [3]) and in test [2] were 0.4 nM and 53 nM, respectively.
On to `Clc1ccc2c(c1)-c1nc(Cn3cc4ccccc4n3)nn1Cc1c(Cl)ncn1-2` [Example 26, 3,10-Dichloro-6-indazol-2-ylmethyl-9H-imidazo[1,5-a][1,2,4]triazolo[1,5-d][1,4]benzodiazepine], for which, in test [2] (setting [4]), the Ki is 111 nM.
With `O=C1CCCN1Cc1nc2n(n1)Cc1c(Cl)ncn1-c1ccc(Br)cc1-2` [Example 49, 3-Bromo-10-chloro-6-(2-oxo-pyrrolidin-1-ylmethyl)-9H-imidazo[1,5-a][1,2,4]triazolo[1,5-d][1,4]benzodiazepine], the Ki amounted to 0.9 nM in test [1] (setting [3]) and 114 nM in test [2].
In test [2], `O=C1OCCN1Cc1nc2n(n1)Cc1c(Cl)ncn1-c1ccc(Br)cc1-2` [Example 50] registered a Ki of 85.7 nM.
Consider `OC(c1cccnc1)c1nc2n(n1)Cc1c(Cl)ncn1-c1ccc(Br)cc1-2` (stereo not drawn) [Example 58, 3-Bromo-10-chloro-6-(hydroxy-pyridin-3-yl-methyl)-9H-imidazo[1,5-a][1,2,4]triazolo[1,5-d][1,4]benzodiazepine], for which the Ki in test [1] (setting [3]) came out at 0.7 nM; in test [2] (setting [4]), 69.4 nM.
With `O=C(Cc1nc2n(n1)Cc1c(Cl)ncn1-c1ccc(Br)cc1-2)NC1CCCC1` [Example 61, 3-Bromo-10-chloro-6-cyclopentylcarbamoylmethyl-9H-imidazo[1,5-a][1,2,4]triazolo[1,5-d][1,4]benzodiazepine], the figures for the Ki in test [1] (setting [3]) and in test [2] were 0.6 nM and 91.7 nM, respectively.
In the case of `O=C(Cc1nc2n(n1)Cc1c(Cl)ncn1-c1ccc(Br)cc1-2)NC1CCOCC1` [Example 62, 3-Bromo-10-chloro-6-[(tetrahydro-pyran-4-ylcarbamoyl)-methyl]-9H-imidazo[1,5-a][1,2,4]triazolo[1,5-d][1,4]benzodiazepine], the Ki was found to be 0.7 nM in test [1] (setting [3]) and 88.4 nM in test [2].
On the same counts, the results for `O=C(Cc1nc2n(n1)Cc1c(Cl)ncn1-c1ccc(Br)cc1-2)NCc1cccnc1` [Example 63, 3-Bromo-10-chloro-6-{[(Pyridin-3-ylmethyl)-carbamoyl]-methyl}-9H-imidazo[1,5-a][1,2,4]triazolo[1,5-d][1,4]benzodiazepine] are 0.8 nM and 64.7 nM.
On the same counts, the results for `O=C(Cc1nc2n(n1)Cc1c(Cl)ncn1-c1ccc(Br)cc1-2)NCC1CC1` [Example 64, 3-Bromo-10-chloro-6-[(cyclopropylmethyl-carbamoyl)-methyl]-9H-imidazo[1,5-a][1,2,4]triazolo[1,5-d][1,4]benzodiazepine] are 0.5 nM and 68.8 nM.
As for `O=C(Cc1nc2n(n1)Cc1c(Cl)ncn1-c1ccc(Br)cc1-2)NCCO` [Example 65, 3-Bromo-10-chloro-6-[(2-hydroxy-ethylcarbamoyl)-methyl]-9H-imidazo[1,5-a][1,2,4]triazolo[1,5-d][1,4]benzodiazepine], the Ki in test [2] came to 149 nM.
Turning to `Cc1noc(Cc2nc3n(n2)Cc2c(Cl)ncn2-c2ccc(Br)cc2-3)n1` [Example 72, 3-Bromo-10-chloro-6-(3-methyl-[1,2,4]oxadiazol-5-ylmethyl)-9H-imidazo[1,5-a][1,2,4]triazolo[1,5-d][1,4]benzodiazepine], the Ki in test [1] (setting [3]) was determined as 0.7 nM; in test [2] it was 98.2 nM.
On to `COCC1CN(Cc2nc3n(n2)Cc2c(Cl)ncn2-c2ccc(Br)cc2-3)C(=O)O1` (stereo not drawn) [Example 83, 3-Bromo-10-chloro-6-(5-methoxymethyl-2-oxo-oxazolidin-3-ylmethyl)-9H-imidazo[1,5-a][1,2,4]triazolo[1,5-d][1,4]benzodiazepine], for which, in test [2] (setting [4]), the Ki came to 113 nM.
Regarding `Cc1ncn2c1Cn1nc(Cc3ccncc3)nc1-c1cc(Br)ccc1-2` [Example 122, 3-Bromo-10-methyl-6-(pyridine-4-ylmethyl)-9H-imidazo[1,5-a][1,2,4]triazolo[1,5-d][1,4]benzodiazepine], the results for the Ki in test [1] and in test [2] (setting [4]) were 0.5 nM and 150 nM, respectively.
For the compound `Cc1cc(Cc2nc3n(n2)Cc2c(C)ncn2-c2ccc(Br)cc2-3)on1` [Example 123, 3-Bromo-10-methyl-6-(3-methyl-isoxazol-5-ylmethyl)-9H-imidazo[1,5-a][1,2,4]triazolo[1,5-d][1,4]benzodiazepine], the values for the Ki in test [1] and in test [2] (setting [4]) were 0.6 nM and 188 nM, respectively.
In the case of `Cc1ccc(Cc2nc3n(n2)Cc2c(C)ncn2-c2ccc(Br)cc2-3)cn1` [Example 124, 3-Bromo-10-methyl-6-(6-methyl-pyridin-3-ylmethyl)-9H-imidazo[1,5-a][1,2,4]triazolo[1,5-d][1,4]benzodiazepine], in test [2] (setting [4]), the Ki was found to be 219 nM.
Same read-out and setting: the figure for `Cc1ncn2c1Cn1nc(Cn3ccnn3)nc1-c1cc(Br)ccc1-2` [Example 162, 3-Bromo-10-methyl-6-[1,2,3]triazol-1-ylmethyl-9H-imidazo[1,5-a][1,2,4]triazolo[1,5-d][1,4]benzodiazepine hydrochloride (1:1)] is 152 nM.
For `COc1ccccc1Cc1nc2n(n1)Cc1c(C)ncn1-c1ccc(Br)cc1-2` [Example 168, 3-Bromo-6-(2-methoxy-benzyl)-10-methyl-9H-imidazo[1,5-a][1,2,4]triazolo[1,5-d][1,4]benzodiazepine hydrochloride (1:1)], in test [2], the affinity, expressed as Ki, was 63.4 nM.
Take `Cc1cc(Cc2nc3n(n2)Cc2c(C)ncn2-c2ccc(Cl)cc2-3)on1` [Example 183, 3-Chloro-10-methyl-6-(3-methyl-isoxazol-5-ylmethyl)-9H-imidazo[1,5-a][1,2,4]triazolo[1,5-d][1,4]benzodiazepine hydrochloride (1:1)]: the Ki in test [1] came out at 0.6 nM; in test [2] (setting [4]), 279 nM.
Turning to `Cc1cc(Cc2nc3n(n2)Cc2c(C)ncn2-c2ccc(Cl)cc2-3)ccn1` [Example 191, 3-Chloro-10-methyl-6-(2-methyl-pyridin-4-ylmethyl)-9H-imidazo[1,5-a][1,2,4]triazolo[1,5-d][1,4]benzodiazepine], the Ki in test [2] (setting [4]) came to 266 nM.
Regarding `Cc1ncn2c1Cn1nc(Cn3ccnn3)nc1-c1cc(Cl)ccc1-2` [Example 364, 3-Chloro-10-methyl-6-[1,2,3]triazol-1-ylmethyl-9H-imidazo[1,5-a][1,2,4]triazolo[1,5-d][1,4]benzodiazepine hydrochloride (1:1)], the Ki in test [2] (setting [4]) is 134 nM.
Compound `Cc1ncn2c1Cn1nc(Cc3ccn[nH]3)nc1-c1ccccc1-2` [Example 380, 10-Methyl-6-(2H-pyrazol-3-ylmethyl)-9H-imidazo[1,5-a][1,2,4]triazolo[1,5-d][1,4]benzodiazepine hydrochloride (1:1)] returned an inhibition constant Ki in test [2] of 56.6 nM.
